Measured values published in patent US20250032581A1, “COMPOSITIONS AND ARTICLES COMPRISING AN ADNF POLYPEPTIDE” (RAMOT AT TEL-AVIV UNIVERSITY LTD., priority 2021, published 2025).

What was measured:
Type in all cases: cell-based, mouse
Tau, tubulin = assay: Polymerized vs. soluble tubulin assay; details: zinc 400 μM, 4 h, peptide 10^−12M
Experimental: Polymerized vs. soluble tubulin assay—To quantify tubulin polymerization and Tau-MT association, a simple assay was performed as previously described. The cells grown to confluence in six-well plates were washed with MT buffer (80 mM PIPES pH 6.8, 1 mM MgCl^2, 2 mM EGTA, 5% Glycerol) and lysed at room temperature for 5 min through centrifugation (300 g), with 150 μl of MT buffer with 0.5% Triton X-100 to extract soluble (cytosolic) tubulin (S). The pelleted cells were rinsed once again with an equal volume of modified RIPA lysis buffer (50 mM Tris-HCL pH 7.4, 150 mM NaCl, 2 mM EGTA, 1% Triton X-100, 0. 1% SDS, 0.1% sodium Deoxycholate) to collect the polymerized (cytoskeletal) tubulin (P). The cytosolic and cytoskeletal fractions were each mixed with sample buffer and heated at 95° C. for 5 min. An equal volume of each fraction was analyzed by immunoblotting with Tau, tubulin and actin antibodies, and the results following ECL development were quantified by densitometry (GelQuant.NET software provided by biochemlabsolutions(dot)com).
It is known that in the presence of extracellular zinc NAP protects MT against degradation by promoting Tau binding to the MT shaft. Polymerized vs. soluble tubulin assay was effected to compare protective activities of NAP and SKIP against MT degradation and Tau-MT dissociation (FIGS. 11F-G). After treatments with zinc (400 μM, 4 h) with and without NAP or SKIP (10^−12M, 4 h) the cellular-tubulin pool was separated into polymerized and soluble tubulin fractions. The amount of Tau, tubulin, and actin was identified by immunoblotting (FIG. 11F), followed by densitometric quantification (FIG. 11G).

[1] = system: differentiated N1E-115 cells expressing RFP-tagged EB3; assay: Live imaging of EB3 comet-like structures (MT dynamics); details: 10^−12M, 4 hrs, vs. non-treated control; no significant differences between NAP and SKIP
Description: Plasmid construction—Protein expressing plasmids were constructed as previously described based on pEGFP-C1 backbone and express full-length ADNP or the following truncated ADNP proteins: p.Glu830synfs*83, p.Lys408Valfs*31, p.Ser404* (as before). Inserts of cDNA carrying unique mutations were obtained from mRNA extracted from patient-derived lymphoblastoid cell lines and cDNA with full-length human ADNP was obtained from a control lymphoblastoid cell line with no mutation. Protein expressions were verified by fluorescent imaging and immunoblotting analysis as before.
(§1) Cell culture—Mouse neuroblastoma NIE-115 cells were maintained in Dulbecco's modified Eagle's medium, 10% fetal bovine serum, 2 mM glutamine and 100 U ml-1 penicillin, 100 mg ml-1 streptomycin (Biological Industries, Beit Haemek, Israel). The cells were incubated in 9 5% air/5% CO2 in a humidified incubator at 37° C.
(§2) Cell differentiation and co-transfection of overexpression plasmids—Cultured NIE-115 cells were plated on 35 mm dishes (81156, 60 p-Dish, Ibidi, Martinsried, Germany) at a concentration of 1.25×10^4 cells per dish and then were differentiated with reduced fetal bovine serum (2%) and DMSO (1.25%) containing medium for 5 days before transfection. 48 hrs before experiments N1E-115 cells were co-transfected with 1 μg EB3-RFP or mCherry-Tau (3R) plasmid with or without 2 μg of plasmids, coding to GFP conjugated to full-length human ADNP, or ADNP carried mutations. 1:3 ratios between total amount of transfected DNA and transfection reagent were used according to manufacture guidance (Lipofectamine2000, Thermo Fisher Scientific, Waltham, MA, USA) in all subsequent experiments.
Live Imaging—48 hrs after transfection, differentiated NIE-115 cells (expressing EB3-RFP with or without GFP-conjugated to full-length ADNP or mutated ADNP) were incubated at 37° C. with a 5% CO2/95% air mixture in a thermostatic chamber placed on the stage of a Leica TCS SP5 confocal microscope (objective 100× (PL Apo) oil immersion, NA 1.4). Time-lapse images were automatically captured 3 sec during 1 min, using the Leica LAS AF software. After imaging all samples were also treated with NAP (SEQ ID NO: 2) or SKIP (SEQ ID NO: 21) in final concentrations of 10^−12M, and after 4 hrs time-lapse imaging was done again under the same conditions. Data was collected and analyzed by Imaris software.
To evaluate the effect of ADNP truncated proteins on MT dynamics time-lapse imaging of EB3 comet-like structures formed by RFP-tagged EB3 proteins that bind to MT plus-ends was performed. Two parameters of EB3 activity were used to assess MT dynamics—track length and track speed of EB3 comets, which reflect the length of freshly growing MTs and the speed of MT assembly, respectively. Furthermore, the present inventors aimed to determine whether NAP ([…] for 4 hrs) could prevent the deleterious effect of ADNP mutations.

[2] = system: Tau-MT interaction in differentiated N1E-115 cells; assay: Fluorescence recovery after photobleaching (FRAP) of mCherry-Tau; details: zinc 400 μM, 1 h; peptide 10^−12M
Experimental: as §1, §2
Fluorescence recovery after photobleaching (FRAP)—Differentiated NIE-115 cells were transfected with mCherry-Tau with or without GFP-conjugated to full-length ADNP or mutated ADNP, and imaged 48 hrs after transfection. An ROI for photobleaching was drowned in the proximal cell branches. mCherry-Tau was bleached with a […], and fluorescence recovery was collected within wavelengths of 610-650 nm. 80 images were taken every 0.74 sec immediately after bleaching. After FRAP imaging all samples were also treated with NAP in final concentrations of 10^−12M, and after 4 hrs time-lapse imaging was done again under the same conditions. FRAP imaging for assessment difference between NAP and SKIP (SEQ ID NO: 21) activity was performed after an hour of ZnCl2 treatment (400 μM final concentration; Sigma, Rehovot, Israel) with or without NAP/SKIP (10^−12M final concentration). Fluorescence signals were quantified with Fiji, obtained data were normalized with easyFRAP [82, 83] and FRAP recovery curves were fitted by a one-phase exponential association function by GraphPad Prism6 (GraphPad Software, Inc., La Jolla, CA, USA) while samples with R^2<0.9 were excluded.
Next, the effect of full-length/truncated ADNP forms with or without NAP treatment on Tau-MT interaction was examined by fluorescence recovery after photobleaching (FRAP) (FIGS. 8A-C). FRAP was performed with mCherry-tagged Tau protein (FIG. 8A). […] Therefore, the immobile mCherry-Tau fraction reflects the rate of Tau association with MTs.

## SKIP
Tau, tubulin
  protection against Tau dissociation from MTs (soluble Tau ratio): only NAP exhibited protection against Tau dissociation from MTs
  protection of polymerized tubulin against zinc: protected against zinc-induced decay
[1]
  EB3 track length and speed: increased EB3 track length and speed
[2]
  Tau immobile fraction (Tau-MT interaction) in the presence of zinc: prevented zinc adverse effect
